Measurements published in the NIST ThermoML archive (doi:10.1021/je060260h).
± gives the expanded uncertainty stated by the source.

Experiment: refractive index (Na D-line) (dimensionless)
Conditions: 298.15 K; 101.33 kPa; Liquid; Standard Abbe refractometry

Row | SMILES | refractive index
1 | CCCCn1cc[n+](C)c1.F[P-](F)(F)(F)(F)F [1-butyl-3-methylimidazolium hexafluorophosphate] | 1.40925 ± 0.00037
2 | CCCCO [butan-1-ol] | 1.39686 ± 0.00033
